Data published in patent US10213445B2, “Compositions and methods of diazeniumdiolate-based prodrugs for treating cancer” (ARIZONA BOARD OF REGENTS ON BEHALF OF THE UNIVERSITY OF …, priority 2014, dated 2019).

What was measured:
[1] = test system: MDA-MB-231 cells; assay: Alkaline Comet assay of DNA damage; assay type: cell-based, human; conditions: 75 μM, 8 hours, 37° C.
Procedure: Tail length: mean±SEM, n≥150.
Autoxidation of both NO and HNO leads to species that are capable of damaging DNA. Conversion of NO to N2O3 can induce mutations through base deamination) while the product of the reaction of HNO with O2 can oxidize and cleave DNA. To investigate the possibility of RNS-induced DNA damage as a mechanism of cytotoxicity, the effect of the NONO-aspirin prodrugs was studied with the alkaline Comet assay in MDA-MB-231 cells. After 8 hours, the damage induced by treatment with 50 μM IPA/NO-aspirin was significant (FIG. 7A) and similar to the H2O2 positive control (FIG. 7C). […] This may be an important factor in the observed enhanced cytotoxicity of IPA/NO-aspirin. In particular, IPA/NO-aspirin is able to damage DNA (FIG. 7) including inducing double strand breaks, in a manner similar to radiation therapy and chemotherapies such as doxorubicin.

[2] = test system: E-cadherin in MDA-MB-231 cells; assay: E-cadherin expression (RT-PCR, Western blot); assay type: cell-based, human; conditions: 100 μM, 3, 6 or 12 h; for E-cadherin mRNA expression: RT-PCR; for E-cadherin protein level: Western blot
Procedure: The cells were treated with vehicle (black) or 100 μM IPA/NO-aspirin (blue) or DEA/NO-aspirin (green) for 3, 6 or 12 h at 37° C. Relative mRNA expression was measured using RT-PCR techniques. E-cadherin mRNA were quantified with respect to control (1).
The cells were treated with vehicle (black) or 100 μM IPA/NO-aspirin (blue) or DEA/NO-aspirin (green) for 3, 6 or 12 h at 37° C. Protein expression was measured using Western blot techniques. E-cadherin protein levels were quantified with respect to control (100%).
Epithelial cadherin (E-cadherin) is calcium-dependent, membrane-associated cellular adhesion glycoprotein. Loss of E-cadherin-mediated cellular adhesion is a prerequisite for invasion and metastasis of tumor cells. NO is an endogenous mediator of endothelial cell migration. […] However, the effect of HNO on metastasis has not been studied. […] This can result in a reversal of tumor cells from an invasive, mesenchymal, to a benign, epithelial phenotype.

[3] = target: T1, GAPDH in MDA-MB-231 cells (Homo sapiens, UniProt P04406); assay: GAPDH activity in cells; assay type: cell-based; conditions: MDA-MB-231, 0-100 μM, 1 h, 37° C.
T1 construct: host or cells: MDA-MB-231; MCF-10A
Procedure: (§1) The cells were treated with varied concentrations (0, 25, 50, 75, 100 μM) of IPA/NO-aspirin (blue) or DEA/NO-aspirin (green) for 1 h at 37° C. GAPDH activity was assessed by measuring fluorescence intensity at 570 nm. Data are plotted as mean±SD (n=3).
(§2) GAPDH is a critical glycolytic enzyme that can play an important role in cancer therapy as solid tumors often utilize glycolytic pathways even during normoxia to meet their energy requirements. Thus, inhibition of GAPDH can diminish ATP availability for tumor cells. GAPDH is also involved in initiation of apoptosis and in DNA repair.

[4] = target: T2, GAPDH in MCF-10A cells (Homo sapiens, UniProt P04406); assay: GAPDH activity in cells; assay type: cell-based; conditions: 0-100 μM, 1 h, 37° C.
T2 construct: host or cells: MDA-MB-231; MCF-10A
Procedure: as §1, §2

[5] = test system: prostaglandin E2 (PGE2); conditions: cited from earlier work
[6] = test system: ER-α; assay: ER-α levels (mRNA of ER1) in ER-α(−) cells; assay type: cell-based; conditions: FIG. 20
[7] = test system: BCL-2; assay: BCL-2 expression; assay type: cell-based; conditions: FIG. 18

T1 sequence (P04406 whole entry): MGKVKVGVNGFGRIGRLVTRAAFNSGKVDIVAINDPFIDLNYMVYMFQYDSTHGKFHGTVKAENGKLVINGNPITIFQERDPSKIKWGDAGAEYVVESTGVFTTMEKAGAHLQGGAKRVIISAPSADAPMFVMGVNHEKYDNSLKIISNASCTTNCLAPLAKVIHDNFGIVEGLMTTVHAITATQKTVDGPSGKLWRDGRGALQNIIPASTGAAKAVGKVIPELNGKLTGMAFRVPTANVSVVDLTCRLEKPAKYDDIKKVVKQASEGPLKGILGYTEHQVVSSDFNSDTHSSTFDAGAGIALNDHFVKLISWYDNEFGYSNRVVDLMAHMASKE
T2 sequence (P04406 whole entry): as above

| SMILES | DNA damage (Comet assay) [1] | E-cadherin mRNA expression [2] | E-cadherin protein level [2] | GAPDH activity [3] | GAPDH activity [4] | level of PGE2 [5] | ER-α levels [6] | BCL-2 expression [7] |
| --- | --- | --- | --- | --- | --- | --- | --- | --- |
| CCN(CC)[N+]([O-])=NOCOC(=O)c1ccccc1OC(C)=O [DEA/NO-aspirin, O2-(Acetylsalicyloyloxymethyl)-1-(N,N-Diethylamino)-diazen-1-ium-1,2-diolate] | did not differ from the DMSO-treated negative control | did increase E-cadherin expression in a time-dependent manner | did increase E-cadherin expression in a time-dependent manner | not inhibitory in either cell line | not inhibitory in either cell line | – | – | – |
| CC(=O)Oc1ccccc1C(=O)OCON=[N+]([O-])NC(C)C [IPA/NO-aspirin, O2-(Acetylsalicyloyloxymethyl)-1-(N-isopropylamino)-diazen-1-ium-1,2-diolate] | – | does not show any significant change | does not show any significant change | inhibited GAPDH activity in a concentration (FIG. 9A) and time-dependent-manner | did not affect GAPDH activity | reduction in PGE2 levels | inhibit the aspirin effect | inhibits the aspirin effect |
